From patent US20200237703A1, “OLEACEIN FOR USE IN ATHEROSCLEROSIS PREVENTION” (WARSZAWSKI UNIWERSYTET MEDYCZNY, priority 2017, published 2020)

Assays:
[1] = test system: macrophage cells isolated from human peripheral blood; test: Cytotoxicity on macrophage cells; format: cell-based; conditions: oleacein 20 μmol/L and 50 μmol/L, 72 hours
Experimental: (§1) All experiments were conducted with the use of macrophage cells isolated from human peripheral blood. […] Expression of scavenger receptors was determined using flow cytometer. Visualization of lipid deposits in macrophages (foam cells) was carried out with the use of well-known Red Oil O staining method.

[2] = test system: macrophage foam cells; test: Formation of foam cells / lipid deposits in macrophages, Red Oil O staining; format: cell-based, human; conditions: oleacein 50 μmol/L + oxLDL 50 μg/mL
Experimental: as §1
The images were acquired using fluorescence microscope Nikon TS100F. D—control, the cells without stimulation, E—the cells incubated with oleacein (50 μmol/L), F—the cells stimulated with oxLDL (50 μg/mI)—stimulated control, G—the cells incubated with oleacein (50 μmol/L) and oxLDL (50 μg/mL).

## C/C=C(/C=O)[C@@H](CC=O)CC(=O)OCCc1ccc(O)c(O)c1 [oleacein]
[1]
  cytotoxicity on macrophage cells: no cytotoxicity
[2]
  effect on the formation of foam cells and lipid deposits: inhibitory effect
